In ChEMBL document CHEMBL3758080, “4-Arylamino-6-nitroquinazolines: Synthesis and their activities against neglected disease leishmaniasis” (Eur J Med Chem, 2016):

What was measured:
[1] = tested on: Leishmania major; experiment: Antileishmanial activity against Leishmania major promastigotes after 72 hrs by Neubauer counting chamber based microscopy; type: functional, organism-based
[2] = tested on: Leishmania major; experiment: Potency index, ratio IC50 of pentamidine to IC50 of compound for antilieshmanial activity against Leishmania major promastigotes; type: functional
[3] = Leishmania major, 72 h, read-out: IC50

Q: How did the IC50 [1] turn out when `O=[N+]([O-])c1ccc2ncnc(Nc3cccc(Cl)c3)c2c1` was run?
A: Not Active

Q: How did the IC50 [1] turn out when `O=[N+]([O-])c1ccc2ncnc(Nc3ccccc3)c2c1` was run?
A: Not Active

Q: `O=[N+]([O-])c1ccc2ncnc(Nc3cccc(Br)c3)c2c1` was tested. Which IC50 [1, 3] did it give?
A: 9.04 µM

Q: `O=[N+]([O-])c1ccc2ncnc(Nc3ccc(F)cc3)c2c1` was tested. Which IC50 [1] did it give?
A: Not Active

Q: With `Cc1ccc(Nc2ncnc3ccc([N+](=O)[O-])cc23)cc1C` as the compound, how does the IC50 [1, 3] read?
A: 35.9 µM

Q: For `O=[N+]([O-])c1ccc2ncnc(Nc3ccc(I)cc3)c2c1`, which IC50 [1] is on record?
A: Not Active

Q: `COc1ccccc1Nc1ncnc2ccc([N+](=O)[O-])cc12` was tested. Which IC50 [1, 3] did it give?
A: 4.37 µM

Q: Which IC50 [1, 3] does the source give for `Cc1ccc(Cl)cc1Nc1ncnc2ccc([N+](=O)[O-])cc12` here?
A: 44.9 µM

Q: Which IC50 [1, 3] does the source give for `COc1ccc(OC)c(Nc2ncnc3ccc([N+](=O)[O-])cc23)c1` here?
A: 12.3 µM

Q: With `O=[N+]([O-])c1ccc2ncnc(Nc3ccccc3Cl)c2c1` as the compound, how does the IC50 [1, 3] read?
A: 6.53 µM

Q: How did the IC50 [1] turn out when `COc1cccc(Nc2ncnc3ccc([N+](=O)[O-])cc23)c1` was run?
A: Not Active

Q: How did the IC50 [1] turn out when `O=[N+]([O-])c1ccc2ncnc(Nc3ccc(Cl)cc3Cl)c2c1` was run?
A: Not Active

Q: For `CSc1ccc(Nc2ncnc3ccc([N+](=O)[O-])cc23)cc1`, which “Ratio IC50” value [2] is on record?
A: 3

Q: And the IC50 [1, 3]?
A: 1.87 µM

Q: For `O=[N+]([O-])c1ccc2ncnc(Nc3ccc(Cl)cc3)c2c1`, which IC50 [1] is on record?
A: Not Active

Q: `Cc1ccc(Nc2ncnc3ccc([N+](=O)[O-])cc23)cc1` was tested. Which IC50 [1, 3] did it give?
A: 24 µM

Q: Which IC50 [1] does the source give for `O=[N+]([O-])c1ccc2ncnc(Nc3cccc(O)c3)c2c1` here?
A: Not Active

Q: Which IC50 [1] does the source give for `COc1ccc(Nc2ncnc3ccc([N+](=O)[O-])cc23)cc1` here?
A: Not Active

Q: With `CCc1ccc(Nc2ncnc3ccc([N+](=O)[O-])cc23)cc1` as the compound, how does the IC50 [1, 3] read?
A: 38.2 µM

Q: For `Cc1ccc(C)c(Nc2ncnc3ccc([N+](=O)[O-])cc23)c1`, which IC50 [1] is on record?
A: Not Active

Q: For `O=[N+]([O-])c1ccc2ncnc(Nc3cc(Cl)ccc3Cl)c2c1`, which IC50 [1] is on record?
A: Not Active

Q: With `O=[N+]([O-])c1ccc2ncnc(Nc3ccc(Cl)c(Cl)c3)c2c1` as the compound, how does the IC50 [1] read?
A: Not Active

Q: How did the IC50 [1] turn out when `COc1cc(OC)c(Nc2ncnc3ccc([N+](=O)[O-])cc23)cc1Cl` was run?
A: Not Active

Q: Which IC50 [1, 3] does the source give for `CSc1cccc(Nc2ncnc3ccc([N+](=O)[O-])cc23)c1` here?
A: 19.9 µM

Q: Which IC50 [1, 3] does the source give for `O=[N+]([O-])c1ccc2ncnc(Nc3ccc(Br)cc3)c2c1` here?
A: 61.5 µM
